The text below walks through data of article PMC8162404, “Proteomimetic surface fragments distinguish targets by function” (Chemical Science, 2020).

The target of one experiment is T1, S100A4 (Homo sapiens, UniProt P26447).
T1 construct: made in house; host or cells: Escherichia coli BL21(DE3)
In words: Pull-down assay with immobilized protein and LSM libraries. It is filed as binding. Conditions: H14 library; 1:1 binding assumed; read-out: Surface mapping KD (apparent). A digest of the protocol: (§1)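 Buffers were HEPES pH 7.4 with 150 mM NaCl, plus 1 mM TCEP and 1 mM CaCl2 (50 mM HEPES) for S100A4 and S100B, 1 mM TCEP for Gal-1, and no additive for RecQ-WH. Immobilized protein at 64 µM was equilibrated 30 min with the LSM sublibrary, and unbound probes were measured by LC-MS.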

Experiment [1] deals with T2, S100B (Homo sapiens, UniProt P04271).
T2 construct: made in house; host or cells: Escherichia coli BL21(DE3)
T2 sequence (P04271 1-92): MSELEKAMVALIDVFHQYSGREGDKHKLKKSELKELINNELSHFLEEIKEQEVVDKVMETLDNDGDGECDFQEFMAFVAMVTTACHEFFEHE
Described as above. It is filed as binding. Conditions: H14 library; 1:1 binding assumed; read-out: Surface mapping KD (apparent). The procedure, abridged:
as §1

A further experiment has as its target T3, Gal-1 (Homo sapiens, UniProt P09382).
T3 construct: made in house; host or cells: E. coli BL21(DE3)
The description is as above. It is filed as binding. Conditions: H14 library; 1:1 binding assumed; read-out: Surface mapping KD (apparent). A digest of the protocol: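 His-tagged protein immobilized on Co-NTA resin (64 µM) in 20 mM HEPES pH 7.4, 150 mM NaCl, equilibrated 30 min at room temperature with foldamer LSM sublibraries at equimolar total concentration. Unbound fractions quantified by HPLC-MS versus protein-free resin control; apparent KD assumes 1:1 binding.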

For the next experiment, the target named is T4, CaM (Bos taurus, UniProt P62157).
T4 construct: made in house; host or cells: E. coli BL21 (DE3)
The description is as above. It is filed as binding, bovine. Conditions: H14 library; 1:2 stoichiometry assumed; read-out: Surface mapping KD (apparent). The procedure, abridged: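 His-tagged protein immobilized on Co-NTA resin, equilibrated 30 min at room temperature with LSM sublibraries (64 members, […]), equimolar protein to total probe. CaM buffer: 20 mM HEPES pH 7.4, 150 mM NaCl, 5 mM CaCl2. Bound fractions from HPLC-MS loss of unbound probe versus protein-free resin control; Kd derived.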

Experiment [2] concerns the target T2, S100B. In words: Competition pull-down with native ligand RSK1 (689–735). It is filed as binding. Conditions: H14 library; competitor peptide 200 µM; read-out: Surface mapping KD (apparent), competition.

T1 sequence (P26447 whole entry): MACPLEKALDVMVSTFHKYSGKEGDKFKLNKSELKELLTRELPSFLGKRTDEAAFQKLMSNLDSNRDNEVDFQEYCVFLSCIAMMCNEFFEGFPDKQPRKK
T3 sequence (P09382 whole entry): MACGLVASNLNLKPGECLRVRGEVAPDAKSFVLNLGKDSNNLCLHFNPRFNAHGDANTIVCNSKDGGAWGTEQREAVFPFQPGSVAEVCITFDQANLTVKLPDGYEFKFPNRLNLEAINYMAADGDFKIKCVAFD

Regarding `CC(C)C[C@@H](CC(=O)N[C@H]1CCCC[C@@H]1C(=O)N[C@H]1CCCC[C@@H]1C(=O)N[C@@H](CCCNC(=N)N)CC(=O)N[C@H]1CCCC[C@@H]1C(N)=O)NC(=O)[C@H]1CCCC[C@@H]1N` [H14 LR], the Kd on S100A4 was found to be 138 µM; on S100B [1], 82 µM; at Gal-1, 116 µM; on CaM, 14 µM; at S100B [2], 167 µM.

`C[C@@H](CC(=O)N[C@H]1CCCC[C@@H]1C(=O)N[C@H]1CCCC[C@@H]1C(=O)N[C@H](CC(=O)N[C@H]1CCCC[C@@H]1C(N)=O)Cc1ccc(O)cc1)NC(=O)[C@H]1CCCC[C@@H]1N` [H14 AY]: the Kd was determined as 221 µM at S100A4; 192 µM at S100B [1]; 353 µM on Gal-1; 119 µM on CaM; 304 µM at S100B [2].

On to `CC(C)[C@@H](CC(=O)N[C@H]1CCCC[C@@H]1C(=O)N[C@H]1CCCC[C@@H]1C(=O)N[C@H](CC(=O)N[C@H]1CCCC[C@@H]1C(N)=O)[C@@H](C)O)NC(=O)[C@H]1CCCC[C@@H]1N` [H14 VT], for which the Kd turned out to be 79 µM on S100A4; 382 µM on S100B [1]; 347 µM on Gal-1; 142 µM on CaM; 484 µM at S100B [2].

Take `CC(C)C[C@@H](CC(=O)N[C@H]1CCCC[C@@H]1C(=O)N[C@H]1CCCC[C@@H]1C(=O)N[C@@H](CC(N)=O)CC(=O)N[C@H]1CCCC[C@@H]1C(N)=O)NC(=O)[C@H]1CCCC[C@@H]1N` [H14 LN]: the Kd at S100A4 was determined as 433 µM; at S100B [1], 409 µM; on Gal-1 it was 314 µM; on CaM it was 294 µM; at S100B [2], 254 µM.

For the compound `CSCC[C@@H](CC(=O)N[C@H]1CCCC[C@@H]1C(=O)N[C@H]1CCCC[C@@H]1C(=O)N[C@@H](C)CC(=O)N[C@H]1CCCC[C@@H]1C(N)=O)NC(=O)[C@H]1CCCC[C@@H]1N` [H14 MA], the Kd came out at 72 µM on S100A4; 380 µM at S100B [1]; 385 µM on Gal-1; 16 µM on CaM; 382 µM on S100B [2].

On to `CC[C@H](C)[C@@H](CC(=O)N[C@H]1CCCC[C@@H]1C(=O)N[C@H]1CCCC[C@@H]1C(=O)N[C@@H](CO)CC(=O)N[C@H]1CCCC[C@@H]1C(N)=O)NC(=O)[C@H]1CCCC[C@@H]1N` [H14 IS], for which the Kd on S100A4 amounted to 79 µM; at S100B [1], 382 µM; on Gal-1, 266 µM; on CaM it was 142 µM; on S100B [2], 456 µM.

Regarding `CSCC[C@@H](CC(=O)N[C@H]1CCCC[C@@H]1C(=O)N[C@H]1CCCC[C@@H]1C(=O)N[C@H](CC(=O)N[C@H]1CCCC[C@@H]1C(N)=O)[C@@H](C)O)NC(=O)[C@H]1CCCC[C@@H]1N` [H14 MT], the Kd at S100A4 was found to be 148 µM; at S100B [1], 476 µM; on Gal-1, 424 µM; on CaM, 63 µM; on S100B [2], 337 µM.

Regarding `CC(C)C[C@@H](CC(=O)N[C@H]1CCCC[C@@H]1C(=O)N[C@H]1CCCC[C@@H]1C(=O)N[C@@H](CO)CC(=O)N[C@H]1CCCC[C@@H]1C(N)=O)NC(=O)[C@H]1CCCC[C@@H]1N` [H14 LS], the Kd at S100A4 worked out at 195 µM; on S100B [1] it was 379 µM; at Gal-1, 498 µM; on CaM, 99 µM; at S100B [2], 371 µM.

Take `C[C@@H](O)[C@@H](CC(=O)N[C@H]1CCCC[C@@H]1C(N)=O)NC(=O)[C@H]1CCCC[C@@H]1NC(=O)[C@H]1CCCC[C@@H]1NC(=O)C[C@H](Cc1ccc(O)cc1)NC(=O)[C@H]1CCCC[C@@H]1N` [H14 YT]: the Kd on S100A4 is 222 µM; at S100B [1], 416 µM; at Gal-1, 396 µM; on CaM it was 30 µM; at S100B [2], 403 µM.

With `CC[C@H](C)[C@@H](CC(=O)N[C@H]1CCCC[C@@H]1C(=O)N[C@H]1CCCC[C@@H]1C(=O)N[C@@H](C)CC(=O)N[C@H]1CCCC[C@@H]1C(N)=O)NC(=O)[C@H]1CCCC[C@@H]1N` [H14 IA], the Kd at S100A4 came to 7 µM; on S100B [1] it was 108 µM; at Gal-1 it was 247 µM; at CaM it was 16 µM; at S100B [2] it was 296 µM.
